Experimental data: publication PMC3919815, “Anti-Tumor Effects of Novel 5-O-Acyl Plumbagins Based on the Inhibition of Mammalian DNA Replicative Polymerase Activity” (PLoS ONE, 2014)

How the values were obtained:
Assay in all cases: DNA polymerase activity inhibition
Format in all cases: biochemical
Rat pol β = target: T1, Rat pol β (Rattus norvegicus, UniProt P06766); conditions: 0.05 units enzyme; mean ± SD (n = 3)
T1 construct: made in house; host or cells: Escherichia coli JMpβ5
Description: (§1) Pol α was purified from calf thymus by immunoaffinity column chromatography as described by Tamai et al.. Recombinant rat pol β was purified from Escherichia coli JMpβ5 as described by Date et al.. The human pol γ catalytic gene was cloned into pFastBac. Histidine-tagged enzyme was expressed using the BACTO-BAC HT Baculovirus Expression System according to the manufacturer's instructions (Life Technologies, Frederick, MD, USA) and purified using ProBound resin (Invitrogen Japan, Tokyo Japan). Human pols δ and ε were purified by nuclear fractionation of human peripheral blood cancer cells (Molt-4) using the second subunit of pol δ and ε-conjugated affinity column chromatography, respectively. A truncated form of human pol η (residues 1–511) tagged with His6 at its C-terminal was expressed in E. coli cells and purified as described by Kusumoto et al.. A recombinant mouse pol ι tagged with His6 at its C-terminal was expressed and purified by Ni–NTA column chromatography. A truncated form of pol κ (residues 1–560) with 6× His-tags attached at the C-terminus was overexpressed in E. coli and purified as described by Ohashi et al.. Recombinant human His-pol λ was overexpressed and purified according to a method described by Shimazaki et al.. Recombinant human His-pol μ was overexpressed in E. coli BL21 and purified using Glutathione Sepharose 4B (GE Healthcare Bio-Science Corp., Piscataway, NJ, USA) column chromatography according to the method for pol λ preparation by Shimazaki et al.. Pol α from a higher plant, cauliflower, was purified from the inflorescence structure according to the methods outlined by Sakaguchi et al.. Recombinant rice (Oryza sativa L. cv. Nipponbare) pol λ tagged with His6 at the C-terminus was expressed in E. coli and purified as described by Uchiyama et al.. Calf TdT, Taq pol, T4 pol, T7 RNA polymerase, and T4 polynucleotide kinase were purchased from Takara Bio Inc. (Kyoto, Japan). The Klenow fragment of pol I from E. coli was purchased from Worthington Biochemical Corp. (Freehold, NJ, USA). Bovine pancreas deoxyribonuclease I was obtained from Stratagene Cloning Systems (La Jolla, CA, USA).
(§2) The reaction mixtures for calf pol α, rat pol β, plant pol α, and prokaryotic pols have been described previously, [35]; those for pol γ as well as pols δ and ε were previously described by Umeda et al. and Ogawa et al., respectively. Those for pols η, ι, and κ were the same as for pol α, and those for pols λ and μ were the same as for pol β. For the pol reactions, poly(dA)/oligo(dT)18 (A/T, 2/1) and dTTP were used as the DNA template-primer substrate and nucleotide (dNTP; 2′-deoxynucleoside-5′-triphosphate) substrate, respectively. For the TdT reactions, oligo(dT)18 (3′-OH) and dTTP were used as the DNA primer substrate and nucleotide substrate, respectively.
(§3) The chemically synthesized 5-O-acyl plumbagins (2a–j) were dissolved in distilled dimethyl sulfoxide (DMSO) to various concentrations and sonicated for 30 s. Subsequently, 4 µL aliquots were mixed with 16 µL of each enzyme (0.05 units) in 50 mM Tris-HCl at pH 7.5, containing 1 mM dithiothreitol, 50% glycerol (by vol), and 0.1 mM ethylenediaminetetraacetic acid and held at 0°C for 10 min. These inhibitor-enzyme mixtures in 8 µL volumes were next added to 16 µL of enzyme standard reaction mixture and incubated at 37°C for 60 min, except for Taq pol, which was incubated at 74°C for 60 min. Activity without inhibitor was considered 100%, and the relative activity was determined for each inhibitor concentration. One unit of pol activity was defined as the amount of each enzyme that catalyzed the incorporation of 1 nmol dTTP into synthetic DNA template primers in 60 min, at 37°C, and under standard reaction conditions, [35].

Human pol μ = target: T2, Human pol μ (Homo sapiens, UniProt Q9NP87); conditions: 0.05 units enzyme; mean ± SD (n = 3)
T2 construct: His tag; made in house; host or cells: E. coli BL21
Description: as §1, §2, §3

E. coli pol I = target: T3, E. coli pol I (Escherichia coli, UniProt P00582)
T3 construct: The Klenow fragment of pol I from E. coli was purchased from Worthington Biochemical Corp; purchased Worthington Biochemical Corp. (Freehold, NJ, USA)
Description: as §1, §2, §3

Mouse pol ι = target: T4, Mouse pol ι (Mus musculus, UniProt Q6R3M4); conditions: 0.05 units enzyme; mean ± SD (n = 3)
T4 construct: His6 (C); made in house
Description: as §1, §2, §3

Human pol ε = target: T5, Human pol ε (Homo sapiens, UniProt Q07864); conditions: 0.05 units enzyme; mean ± SD (n = 3)
T5 construct: purified by nuclear fractionation of human peripheral blood cancer cells (Molt-4); endogenous in cells; host or cells: Molt-4
Description: as §1, §2, §3

Human pol η = target: T6, Human pol η (Homo sapiens, UniProt Q9Y253); conditions: 0.05 units enzyme; mean ± SD (n = 3)
T6 construct: A truncated form of human pol η (residues 1–511) tagged with His6 at its C-terminal; His6 (C); made in house; host or cells: E. coli
Description: as §1, §2, §3

Human pol λ = target: T7, Human pol λ (Homo sapiens, UniProt Q9UGP5); conditions: 0.05 units enzyme; mean ± SD (n = 3)
T7 construct: His tag; made in house
T7 sequence (Q9UGP5 1-575): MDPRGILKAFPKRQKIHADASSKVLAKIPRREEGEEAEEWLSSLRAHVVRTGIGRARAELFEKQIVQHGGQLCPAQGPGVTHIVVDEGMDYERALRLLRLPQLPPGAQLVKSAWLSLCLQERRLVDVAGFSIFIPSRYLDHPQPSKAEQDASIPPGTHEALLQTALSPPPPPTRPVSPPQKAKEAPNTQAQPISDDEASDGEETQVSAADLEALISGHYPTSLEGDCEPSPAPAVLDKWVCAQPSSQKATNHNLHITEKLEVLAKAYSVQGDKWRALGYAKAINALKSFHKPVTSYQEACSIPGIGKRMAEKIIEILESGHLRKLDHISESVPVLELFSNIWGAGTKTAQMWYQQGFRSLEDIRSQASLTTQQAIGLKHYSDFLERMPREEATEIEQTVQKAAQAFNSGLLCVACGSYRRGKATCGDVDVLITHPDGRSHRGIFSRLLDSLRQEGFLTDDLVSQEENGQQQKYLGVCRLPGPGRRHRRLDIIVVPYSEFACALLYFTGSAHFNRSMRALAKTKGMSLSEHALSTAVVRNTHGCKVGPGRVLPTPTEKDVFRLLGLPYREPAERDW
Description: as §1, §2, §3

T4 pol = target: T8, T4 pol (Enterobacteria phage T4, UniProt P04415)
T8 construct: purchased Takara Bio Inc. (Kyoto, Japan)
Description: as §1, §2, §3

T8 sequence (P04415 whole entry): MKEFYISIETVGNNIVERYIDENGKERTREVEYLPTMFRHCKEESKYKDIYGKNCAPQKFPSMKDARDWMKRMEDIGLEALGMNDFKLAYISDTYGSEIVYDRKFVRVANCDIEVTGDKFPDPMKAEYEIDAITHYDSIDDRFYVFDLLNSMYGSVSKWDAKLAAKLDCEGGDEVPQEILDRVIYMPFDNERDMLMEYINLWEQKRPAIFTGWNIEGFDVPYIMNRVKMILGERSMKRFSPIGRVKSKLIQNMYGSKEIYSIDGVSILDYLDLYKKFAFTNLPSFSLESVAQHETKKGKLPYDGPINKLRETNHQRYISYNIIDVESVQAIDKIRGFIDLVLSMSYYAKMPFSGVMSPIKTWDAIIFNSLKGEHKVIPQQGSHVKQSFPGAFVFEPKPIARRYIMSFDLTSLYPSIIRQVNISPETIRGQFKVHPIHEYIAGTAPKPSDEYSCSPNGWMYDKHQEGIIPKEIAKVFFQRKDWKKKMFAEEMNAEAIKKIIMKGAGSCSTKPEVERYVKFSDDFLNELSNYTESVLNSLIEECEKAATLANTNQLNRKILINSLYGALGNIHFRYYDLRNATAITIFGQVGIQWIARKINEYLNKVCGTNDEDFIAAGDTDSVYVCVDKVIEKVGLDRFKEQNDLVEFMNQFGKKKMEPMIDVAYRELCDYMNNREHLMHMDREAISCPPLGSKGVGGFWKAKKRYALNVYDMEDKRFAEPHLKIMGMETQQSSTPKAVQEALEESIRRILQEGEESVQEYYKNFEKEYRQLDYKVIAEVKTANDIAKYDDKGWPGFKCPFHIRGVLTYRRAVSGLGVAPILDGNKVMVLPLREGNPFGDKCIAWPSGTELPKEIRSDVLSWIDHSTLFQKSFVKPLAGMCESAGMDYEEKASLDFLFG
T3 sequence (P00582 324-928): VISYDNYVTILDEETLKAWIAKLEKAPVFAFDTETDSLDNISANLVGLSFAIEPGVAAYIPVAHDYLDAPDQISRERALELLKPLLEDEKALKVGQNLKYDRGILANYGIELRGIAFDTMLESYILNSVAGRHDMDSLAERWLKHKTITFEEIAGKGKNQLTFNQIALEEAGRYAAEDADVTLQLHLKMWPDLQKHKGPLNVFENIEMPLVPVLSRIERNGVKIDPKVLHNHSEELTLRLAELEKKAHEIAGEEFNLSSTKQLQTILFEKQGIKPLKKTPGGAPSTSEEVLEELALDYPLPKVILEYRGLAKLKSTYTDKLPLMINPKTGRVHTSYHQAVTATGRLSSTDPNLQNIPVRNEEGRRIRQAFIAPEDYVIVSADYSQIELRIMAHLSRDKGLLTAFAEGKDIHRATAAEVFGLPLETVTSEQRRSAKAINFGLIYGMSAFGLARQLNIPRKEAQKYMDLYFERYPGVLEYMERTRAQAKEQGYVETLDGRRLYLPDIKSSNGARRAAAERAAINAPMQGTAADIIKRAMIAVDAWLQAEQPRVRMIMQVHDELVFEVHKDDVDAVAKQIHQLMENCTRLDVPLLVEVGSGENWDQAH
T5 sequence (Q07864 whole entry): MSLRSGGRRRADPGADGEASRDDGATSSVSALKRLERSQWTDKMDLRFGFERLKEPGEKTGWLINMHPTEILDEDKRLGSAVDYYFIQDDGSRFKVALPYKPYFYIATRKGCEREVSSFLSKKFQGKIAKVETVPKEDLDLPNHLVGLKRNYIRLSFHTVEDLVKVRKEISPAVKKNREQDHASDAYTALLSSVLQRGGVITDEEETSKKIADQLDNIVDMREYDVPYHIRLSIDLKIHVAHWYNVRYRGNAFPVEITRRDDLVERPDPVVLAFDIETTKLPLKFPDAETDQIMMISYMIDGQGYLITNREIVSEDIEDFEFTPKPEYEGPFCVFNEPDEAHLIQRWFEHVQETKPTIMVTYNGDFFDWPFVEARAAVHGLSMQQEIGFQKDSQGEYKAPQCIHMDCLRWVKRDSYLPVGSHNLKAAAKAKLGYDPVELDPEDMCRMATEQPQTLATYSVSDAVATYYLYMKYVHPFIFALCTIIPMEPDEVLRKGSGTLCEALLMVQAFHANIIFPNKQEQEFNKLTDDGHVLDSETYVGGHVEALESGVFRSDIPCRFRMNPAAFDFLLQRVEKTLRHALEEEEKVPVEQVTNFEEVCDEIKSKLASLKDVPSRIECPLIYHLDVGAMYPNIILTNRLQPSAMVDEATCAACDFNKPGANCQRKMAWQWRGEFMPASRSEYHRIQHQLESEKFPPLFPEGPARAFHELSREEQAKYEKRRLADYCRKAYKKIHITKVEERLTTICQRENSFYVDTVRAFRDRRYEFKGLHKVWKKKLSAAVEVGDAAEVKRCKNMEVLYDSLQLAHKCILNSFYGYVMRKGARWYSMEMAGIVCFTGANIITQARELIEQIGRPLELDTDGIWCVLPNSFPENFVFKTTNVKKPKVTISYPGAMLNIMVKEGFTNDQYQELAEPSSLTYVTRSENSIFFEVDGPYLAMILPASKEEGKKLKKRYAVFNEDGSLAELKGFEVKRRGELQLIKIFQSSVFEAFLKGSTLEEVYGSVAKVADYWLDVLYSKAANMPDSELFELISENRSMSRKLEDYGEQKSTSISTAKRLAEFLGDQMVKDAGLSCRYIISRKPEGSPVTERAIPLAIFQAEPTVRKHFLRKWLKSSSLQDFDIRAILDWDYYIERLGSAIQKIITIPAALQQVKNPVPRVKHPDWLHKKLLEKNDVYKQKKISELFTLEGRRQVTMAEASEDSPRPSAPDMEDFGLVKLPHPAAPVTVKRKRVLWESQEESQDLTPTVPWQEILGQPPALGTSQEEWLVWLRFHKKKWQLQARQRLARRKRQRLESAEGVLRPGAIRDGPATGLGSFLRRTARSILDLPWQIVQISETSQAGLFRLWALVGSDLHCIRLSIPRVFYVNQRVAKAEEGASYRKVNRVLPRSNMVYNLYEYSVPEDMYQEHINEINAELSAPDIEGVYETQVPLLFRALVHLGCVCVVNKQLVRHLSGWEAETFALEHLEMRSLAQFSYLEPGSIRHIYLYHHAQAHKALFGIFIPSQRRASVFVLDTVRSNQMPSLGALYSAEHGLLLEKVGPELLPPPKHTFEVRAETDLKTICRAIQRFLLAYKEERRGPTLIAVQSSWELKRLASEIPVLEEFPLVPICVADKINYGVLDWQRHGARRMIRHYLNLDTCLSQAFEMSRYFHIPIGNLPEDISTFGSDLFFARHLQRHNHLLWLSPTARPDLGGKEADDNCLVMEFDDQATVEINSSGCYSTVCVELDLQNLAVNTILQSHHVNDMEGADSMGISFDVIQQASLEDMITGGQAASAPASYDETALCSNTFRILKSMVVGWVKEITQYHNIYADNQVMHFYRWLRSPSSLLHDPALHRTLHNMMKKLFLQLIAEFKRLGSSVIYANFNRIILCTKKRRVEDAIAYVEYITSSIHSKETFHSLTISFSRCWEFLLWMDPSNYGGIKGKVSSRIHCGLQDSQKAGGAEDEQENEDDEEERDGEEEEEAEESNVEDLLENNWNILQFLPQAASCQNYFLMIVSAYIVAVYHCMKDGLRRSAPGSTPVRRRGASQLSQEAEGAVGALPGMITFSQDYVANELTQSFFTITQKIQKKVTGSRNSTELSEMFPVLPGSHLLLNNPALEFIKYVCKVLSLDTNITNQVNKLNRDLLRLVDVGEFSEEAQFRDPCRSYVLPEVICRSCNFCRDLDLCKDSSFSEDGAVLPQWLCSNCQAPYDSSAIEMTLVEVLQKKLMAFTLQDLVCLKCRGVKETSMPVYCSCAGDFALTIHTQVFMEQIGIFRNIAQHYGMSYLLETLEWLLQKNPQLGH
T6 sequence (Q9Y253 1-511): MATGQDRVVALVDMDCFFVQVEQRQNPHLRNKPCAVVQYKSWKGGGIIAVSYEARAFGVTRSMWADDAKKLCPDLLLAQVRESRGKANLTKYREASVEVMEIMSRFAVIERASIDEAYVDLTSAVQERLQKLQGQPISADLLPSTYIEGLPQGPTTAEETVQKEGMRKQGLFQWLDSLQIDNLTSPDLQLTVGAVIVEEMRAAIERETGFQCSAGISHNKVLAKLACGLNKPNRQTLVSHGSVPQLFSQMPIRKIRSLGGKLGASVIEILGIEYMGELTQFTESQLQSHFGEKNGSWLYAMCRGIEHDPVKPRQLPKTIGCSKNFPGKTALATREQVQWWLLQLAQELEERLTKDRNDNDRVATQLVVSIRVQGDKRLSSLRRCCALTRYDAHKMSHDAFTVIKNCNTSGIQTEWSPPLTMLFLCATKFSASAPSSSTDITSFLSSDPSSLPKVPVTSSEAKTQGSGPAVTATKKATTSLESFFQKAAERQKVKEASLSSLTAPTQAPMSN
T2 sequence (Q9NP87 whole entry): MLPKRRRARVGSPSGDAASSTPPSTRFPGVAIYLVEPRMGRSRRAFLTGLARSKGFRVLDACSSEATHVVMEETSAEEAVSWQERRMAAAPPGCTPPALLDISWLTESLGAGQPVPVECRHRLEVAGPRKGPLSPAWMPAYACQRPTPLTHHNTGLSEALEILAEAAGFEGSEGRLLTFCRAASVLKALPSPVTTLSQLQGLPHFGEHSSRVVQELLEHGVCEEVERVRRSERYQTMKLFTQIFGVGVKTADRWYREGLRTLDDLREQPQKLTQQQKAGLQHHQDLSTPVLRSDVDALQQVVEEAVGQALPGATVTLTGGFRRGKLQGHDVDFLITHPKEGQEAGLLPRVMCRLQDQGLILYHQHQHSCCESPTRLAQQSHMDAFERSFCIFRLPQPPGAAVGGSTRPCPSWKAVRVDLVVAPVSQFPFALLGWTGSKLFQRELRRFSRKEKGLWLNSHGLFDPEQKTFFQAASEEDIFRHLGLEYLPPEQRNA

For `CCCCCCCC/C=C\CCCCCCCC(=O)Oc1cccc2c1C(=O)C=C(C)C2=O` [2f, 5-O-oleoyl-2-methyl-1,4-naphthoquinone], the IC50 (Rat pol β) was 10.3 ± 0.46 µM, the IC50 (Human pol μ) was 9.5 ± 0.48 µM and the “effect on enzyme activity (in words)” value (E. coli pol I) was “had no effect”. For the same compound, the IC50 (E. coli pol I; 0.05 units enzyme) was greater than 100 µM, the IC50 (Mouse pol ι) was 8.2 ± 0.43 µM and the IC50 (Human pol ε) was 4.9 ± 0.4 µM. For the same compound, the IC50 (Human pol η) was 7.9 ± 0.42 µM, the IC50 (Human pol λ) was 9.2 ± 0.43 µM and the “effect on enzyme activity (in words)” value (T4 pol) was “had no effect”. It also gave an IC50 (T4 pol; 0.05 units enzyme) greater than 100 µM.
